Reference: the supplement of paper PMC10307832

Legend:
Assay in all cases: relative viability (nuclei count vs DMSO), 5 days (fraction); higher = more cells survive
[1] = compound: O=C(/C=C/c1ccccc1)NC(NC(=S)Nc1cccc2cccnc12)C(Cl)(Cl)Cl [Salubrinal] + COc1cc2c(Oc3ccc(NC(=O)C4(C(=O)Nc5ccc(F)cc5)CC4)cc3F)ccnc2cc1OCCCN1CCOCC1 [Foretinib] (partner 0.25 µM)
In short: (§1)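 Lung cancer cell lines, seeded in 1536-well plates, were treated the following day by pin tool with a single drug or with five library-drug doses (not always all listed) in √10 steps on top of a fixed anchor-drug dose. Cells were fixed and nuclei stained in one step after 5 days, and nuclei were counted. Relative viability is the nuclei count for treated wells divided by that for vehicle wells, reported as medians of duplicate plates.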

[2] = compound: O=C(/C=C/c1ccccc1)NC(NC(=S)Nc1cccc2cccnc12)C(Cl)(Cl)Cl [Salubrinal] + CC(=O)Nc1cccc(-n2c(=O)n(C3CC3)c(=O)c3c(Nc4ccc(I)cc4F)n(C)c(=O)c(C)c32)c1 [Trametinib] (partner 0.02 µM)
In short: as §1

[3] = compound: Cc1ccc2nc(NCCN)c3ncc(C)n3c2c1 + Cc1nc(Nc2ncc(C(=O)Nc3c(C)cccc3Cl)s2)cc(N2CCN(CCO)CC2)n1 [Dasatinib] (partner 0.075 µM)
In short: as §1

[4] = compound: Cc1ccc2nc(NCCN)c3ncc(C)n3c2c1 + CC(C)C[C@H](NC(=O)[C@H](Cc1ccccc1)NC(=O)c1cnccn1)B(O)O [Bortezomib] (partner 0.002 µM)
In short: as §1

Cell Line	relative viability ([1]; first compound 0.08 µM)	relative viability ([1]; first compound 0.253 µM)	relative viability ([1]; first compound 0.8 µM)	relative viability ([1]; first compound 2.53 µM)	relative viability ([1]; first compound 8 µM)	relative viability ([2]; first compound 0.08 µM)	relative viability ([2]; first compound 0.253 µM)	relative viability ([2]; first compound 0.8 µM)	relative viability ([2]; first compound 2.53 µM)	relative viability ([2]; first compound 8 µM)	relative viability ([3]; first compound 0.04 µM)	relative viability ([3]; first compound 0.1265 µM)	relative viability ([3]; first compound 0.4 µM)	relative viability ([3]; first compound 1.265 µM)	relative viability ([3]; first compound 4 µM)	relative viability ([4]; first compound 0.04 µM)	relative viability ([4]; first compound 0.1265 µM)	relative viability ([4]; first compound 0.4 µM)	relative viability ([4]; first compound 1.265 µM)	relative viability ([4]; first compound 4 µM)
NCI-H647	1.4	1.2	1.27	1.17	1.12	0.619	0.431	0.524	0.502	0.433	0.172	0.191	0.163	0.169	0.141	0.943	0.783	0.999	0.864	0.707
SK-LU-1	0.947	0.898	0.97	0.817	0.775	0.463	0.468	0.561	0.445	0.447	0.162	0.202	0.181	0.166	0.167	1.39	1.28	0.989	1.29	1.02
ChaGo-K-1	0.989	0.956	0.892	0.869	0.802	0.968	0.858	0.882	0.905	0.802	0.551	0.659	0.659	0.504	0.566	1.01	1	1.01	0.973	0.607
NCI-H1650	1.26	1.02	1.08	1.14	0.894	0.691	0.5	0.592	0.517	0.54	0.33	0.312	0.273	0.282	0.226	0.203	0.19	0.206	0.182	0.202
NCI-H2009	1.28	1.2	1.27	1.22	1.24	0.345	0.262	0.271	0.287	0.222	0.391	0.284	0.313	0.283	0.263	1.06	1.01	0.987	0.97	0.875
LOU-NH91	0.948	1.02	0.957	0.921	0.99	0.728	0.822	0.788	0.824	0.757	0.562	0.547	0.531	0.539	0.559	0.494	0.587	0.556	0.529	0.423
NCI-H2405	1.06	1.05	1.05	1.05	1.01	0.653	0.625	0.594	0.605	0.557	0.204	0.192	0.188	0.185	0.208	1.03	1.03	0.964	0.969	0.918
LCLC-97TM1	0.908	0.885	0.862	0.901	1.03	0.186	0.185	0.209	0.17	0.235	0.941	0.816	0.85	0.911	0.732	0.846	0.614	0.767	0.937	0.585
NCI-H596	0.949	1.17	0.809	0.799	0.701	0.851	0.745	0.747	0.817	0.675	0.677	0.645	0.524	0.524	0.648	1.01	0.937	0.978	0.976	0.971
NCI-H727	1.09	0.856	1.06	0.778	0.898	0.375	0.375	0.383	0.372	0.403	0.4		0.338	0.321	0.365	0.822	0.806	0.683	0.732	0.639
H3255	0.898	0.953	1.01	0.822	0.874	0.744	0.55	0.832	0.582	0.597	0.396	0.393	0.45	0.383	0.387	0.976	0.745	0.695	0.943	0.691
NCI-H1437	1.3	1.23	1.3	1.25	1.29	0.563	0.601	0.52	0.545	0.494	0.379	0.419	0.438	0.399	0.351	0.628	0.467	0.474	0.539	0.557
LU99A	0.92	0.802	0.841	0.703	0.789	0.589	0.515	0.614	0.548	0.56	0.58	0.605	0.622	0.54	0.544	1.26	1.08	1.07	1.2	1
HCC-827	1.02	1.02	1.07	0.956	1.09	0.586	0.544	0.515	0.5	0.548	0.33	0.239	0.291	0.266	0.227	1.12	1.05	0.958	1.09	1.01
HCC-366	0.929	0.947	0.96	0.943	0.915	0.509		0.379	0.306	0.233	0.561	0.685	0.672	0.579	0.629	1.06	0.948	1.13	1.11	0.967
BEN	0.505	0.867	1.01	0.627	0.643	1.07	1.03	1.07	1.14	1.12	0.329	0.291	0.27	0.363	0.374	0.929	0.789	0.849	0.834	0.868
